Drawing on PubChem BioAssay AID330 (DTP/NCI, 2004), this text covers T/C for 25 compounds.

The structures appear in SMILES notation. “And” between values parts separate entries of the source, which are not always exact repeats. Identical values can stand only once. Toxic doses and inconclusive results are not listed.

This test concerns P388 leukemia ip, CD2F1 mice, survival T/C. In words: NCI In Vivo Anticancer Drug Screen. Data for tumor model P388 Leukemia (intraperitoneal) in CD2F1 (CDF1) mice. The note with it: endpoint: median survival time, higher = longer survival. An outline of the steps: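 Mice carrying the transplanted tumor received test compound or vehicle. Survival was recorded in each group, and the value is the treated-group measurement divided by that of the vehicle-treated control group.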

Setting [1] is: dose: 15.0 mg/kg/injection, schedule: Q01DX005 (ip), vehicle: saline with Tween-80.
Setting [2] is: dose: 30.0 mg/kg/injection, schedule: Q01DX005 (ip), vehicle: saline with Tween-80.
Where [3] appears, read: dose: 60.0 mg/kg/injection, schedule: Q01DX005 (ip), vehicle: saline with Tween-80.
Setting [4] is: dose: 25.0 mg/kg/injection, schedule: Q01DX005 (ip), vehicle: Klucel (hydroxypropylcellulose) (HPC).
The mark [5] stands for this setting: dose: 50.0 mg/kg/injection, schedule: Q01DX005 (ip), vehicle: Klucel (hydroxypropylcellulose) (HPC).
Where [6] appears, read: dose: 100.0 mg/kg/injection, schedule: Q01DX005 (ip), vehicle: Klucel (hydroxypropylcellulose) (HPC).
The mark [7] stands for this setting: dose: 200.0 mg/kg/injection, schedule: Q01DX005 (ip), vehicle: Klucel (hydroxypropylcellulose) (HPC).
[8] abbreviates: dose: 50.0 mg/kg/injection, schedule: Q01DX009 (ip), vehicle: Klucel (hydroxypropylcellulose) (HPC).
Setting [9] is: dose: 100.0 mg/kg/injection, schedule: Q01DX009 (ip), vehicle: Klucel (hydroxypropylcellulose) (HPC).
Where [10] appears, read: dose: 200.0 mg/kg/injection, schedule: Q01DX009 (ip), vehicle: Klucel (hydroxypropylcellulose) (HPC).
Where [11] appears, read: dose: 240.0 mg/kg/injection, schedule: Q01DX005 (ip), vehicle: saline with Tween-80.
[12] abbreviates: dose: 60.0 mg/kg/injection, schedule: Q01DX005 (ip), vehicle: saline.
[13] abbreviates: dose: 120.0 mg/kg/injection, schedule: Q01DX005 (ip), vehicle: saline.
Setting [14] is: dose: 240.0 mg/kg/injection, schedule: Q01DX005 (ip), vehicle: saline.
The mark [15] stands for this setting: dose: 120.0 mg/kg/injection, schedule: Q01DX005 (ip), vehicle: saline with Tween-80.
Where [16] appears, read: dose: 100.0 mg/kg/injection, schedule: Q04DX002 (ip), vehicle: saline with Tween-80.
The mark [17] stands for this setting: dose: 200.0 mg/kg/injection, schedule: Q04DX002 (ip), vehicle: saline with Tween-80.

In the case of `Cc1ccc2cccc(OC(=O)Nc3ccc(C)c(NC(=O)Oc4cccc5ccc(C)nc45)c3)c2n1`, the T/C by setting is: under setting [1], 95 % of control; under setting [2], 97 % of control; under setting [3], 99 % of control and 93 % of control.

With `CCOC(=O)c1ccccc1N1C(=O)c2ccccc2NP1(=O)Oc1ccccc1` (centres undefined), the T/C reads like this: under setting [4], 106 % of control; under setting [5], 103 % of control; under setting [6], 106 % of control; under setting [7], 98 % of control.

As to `CN(C)c1ccc2c(SCC(=O)Nc3ccc(NS(C)(=O)=O)cc3)c3ccc(N(C)C)cc3nc2c1`, the T/C is 115 % of control under setting [5], 117 % of control under setting [6] and 114 % of control under setting [7].

Regarding `COc1cc([N+](=O)[O-])c(S(=O)(=O)O)cc1N=N/C=N/Nc1cc(S(=O)(=O)O)c([N+](=O)[O-])cc1OC`, the T/C runs as follows: under setting [5], 118 % of control; under setting [6], 110 % of control; under setting [7], 108 % of control.

For the compound `CN1CCN(CC(=O)N/N=C/c2ccc([N+](=O)[O-])o2)CC1`, the T/C is 101 % of control and 94 % of control under setting [8]; 99 % of control and 101 % of control under setting [9]; 107 % of control under setting [10].

As to `NS(=O)(=O)c1ccc(Nc2c3ccccc3nc3c([N+](=O)[O-])cccc23)cc1`, the T/C reads like this: under setting [1], 97 % of control; under setting [2], 90 % of control; under setting [11], 88 % of control.

Regarding `CC(=O)Oc1ccc2c(c1)C(=O)CCCCC(=O)O2`, the T/C runs as follows: (dose: 100.0 mg/kg/injection, schedule: Q04DX002 (ip), vehicle: Klucel (hydroxypropylcellulose) (HPC)) 106 % of control; (dose: 200.0 mg/kg/injection, schedule: Q04DX002 (ip), vehicle: Klucel (hydroxypropylcellulose) (HPC)) 116 % of control; (dose: 400.0 mg/kg/injection, schedule: Q04DX002 (ip), vehicle: Klucel (hydroxypropylcellulose) (HPC)) 106 % of control.

In the case of `Cc1ccc(S(=O)(=O)C2C(C)(C)C2(Sc2ccccc2)[Si](C)(C)C)cc1` (centres undefined), the T/C by setting is: (dose: 60.0 mg/kg/injection, schedule: Q01DX005 (ip), vehicle: Klucel (hydroxypropylcellulose) (HPC)) 102 % of control; (dose: 120.0 mg/kg/injection, schedule: Q01DX005 (ip), vehicle: Klucel (hydroxypropylcellulose) (HPC)) 106 % of control; (dose: 240.0 mg/kg/injection, schedule: Q01DX005 (ip), vehicle: Klucel (hydroxypropylcellulose) (HPC)) 92 % of control.

On to `Clc1ccc(N=C/C=C\C=C/Nc2ccc(Cl)cc2)cc1`, for which the T/C is 108 % of control (dose: 5.0 mg/kg/injection, schedule: Q01DX009 (ip), vehicle: saline with Tween-80); 108 % of control (dose: 10.0 mg/kg/injection, schedule: Q01DX005 (ip), vehicle: saline with Tween-80); 97 % of control (dose: 10.0 mg/kg/injection, schedule: Q01DX009 (ip), vehicle: saline with Tween-80); 95 % of control (dose: 20.0 mg/kg/injection, schedule: Q01DX005 (ip), vehicle: saline with Tween-80); 95 % of control (dose: 20.0 mg/kg/injection, schedule: Q01DX009 (ip), vehicle: saline with Tween-80); 100 % of control (dose: 40.0 mg/kg/injection, schedule: Q01DX005 (ip), vehicle: saline with Tween-80). In addition, the T/C is 98 % of control (dose: 80.0 mg/kg/injection, schedule: Q01DX005 (ip), vehicle: saline with Tween-80) and 93 % of control (dose: 160.0 mg/kg/injection, schedule: Q01DX005 (ip), vehicle: saline with Tween-80).

Consider `C=CC(C(=C)C(=O)OC)c1ccccc1` (centres undefined), for which the T/C under setting [12] is 100 % of control, the T/C under setting [13] is 109 % of control and the T/C under setting [14] was 103 % of control.

In the case of `CCN(CC)CCOC(=O)c1c[nH]c2ccccc12`, the T/C is 100 % of control (dose: 6.25 mg/kg/injection, schedule: Q01DX005 (ip), vehicle: Klucel (hydroxypropylcellulose) (HPC)); 105 % of control (dose: 12.5 mg/kg/injection, schedule: Q01DX005 (ip), vehicle: Klucel (hydroxypropylcellulose) (HPC)); 105 % of control under setting [4]; 98 % of control and 95 % of control under setting [5]; 100 % of control under setting [6].

Consider `Cn1c(=O)c2nc(-c3ccccc3)cnc2n(C)c1=O`, for which the T/C (dose: 100.0 mg/kg/injection, schedule: Q01DX001 (ip), vehicle: saline) was 99 % of control; the T/C (dose: 200.0 mg/kg/injection, schedule: Q01DX001 (ip), vehicle: saline) is 96 % of control; the T/C (dose: 400.0 mg/kg/injection, schedule: Q01DX001 (ip), vehicle: saline) was 111 % of control.

For `CCOC(=O)N(C)CCc1cc(OC)c(OC)cc1/C=C\c1ccc(OC)c(OC)c1`, the T/C is 100 % of control (dose: 12.5 mg/kg/injection, schedule: Q01DX001 (ip), vehicle: saline + alcohol); 98 % of control (dose: 25.0 mg/kg/injection, schedule: Q01DX001 (ip), vehicle: saline + alcohol); 98 % of control (dose: 50.0 mg/kg/injection, schedule: Q01DX001 (ip), vehicle: saline + alcohol).

With `CCSC(=O)c1ccc(S(=O)(=O)CC)cc1`, the T/C by setting is: under setting [8], 102 % of control; under setting [9], 98 % of control; under setting [10], 106 % of control; (dose: 400.0 mg/kg/injection, schedule: Q01DX009 (ip), vehicle: Klucel (hydroxypropylcellulose) (HPC)) 107 % of control.

Regarding `Fc1ccc(C(Nc2nncs2)Nc2nncs2)c(F)c1`, the T/C under setting [3] is 105 % of control, the T/C under setting [15] is 96 % of control and the T/C under setting [11] was 107 % of control.

Consider `Cc1nnc2c3c4c(sc3nc(C)n12)CCCC4`, for which the T/C runs as follows: under setting [5], 94 % of control; under setting [6], 98 % of control; under setting [7], 104 % of control.

As for `CC(C)(C)OOC(=O)c1ccc2ccccc2c1`, the T/C under setting [3] was 109 % of control, the T/C under setting [15] was 97 % of control and the T/C under setting [11] was 93 % of control.

On to `Cc1nc2ccccc2c(N)c1-c1cc(C)c2c(C)nc3ccccc3c2n1`, for which the T/C by setting is: under setting [4], 88 % of control; under setting [5], 87 % of control; under setting [6], 90 % of control; under setting [7], 88 % of control.

On to `COc1cc(C(c2cc3c(cc2O)OCO3)N2CCN(C(c3ccc(O)c(OC)c3)c3cc4c(cc3O)OCO4)CC2)ccc1O` (centres undefined), for which the T/C is 89 % of control under setting [3], 92 % of control under setting [15] and 95 % of control under setting [11].

With `Nc1cc(Cl)c2[nH]cnc2n1`, the T/C is 102 % of control (dose: 25.0 mg/kg/injection, schedule: Q01DX005 (ip), vehicle: distilled water + Tween-80); 111 % of control (dose: 50.0 mg/kg/injection, schedule: Q01DX005 (ip), vehicle: distilled water + Tween-80); 152 % of control (dose: 200.0 mg/kg/injection, schedule: Q01DX005 (ip), vehicle: distilled water + Tween-80).

As to `O=C1OCCc2c1[nH]c1ccccc21`, the T/C is 100 % of control under setting [16] and 100 % of control under setting [17].

With `C=CCCNC(=S)S`, the T/C reads like this: under setting [12], 109 % of control; under setting [13], 107 % of control; under setting [14], 108 % of control.

As for `CC1CN(Cc2ccccc2)CCC1N1CCCCC1` (centres undefined), the T/C is, setting by setting: (dose: 50.0 mg/kg/injection, schedule: Q01DX005 (ip), vehicle: saline) 99 % of control; (dose: 100.0 mg/kg/injection, schedule: Q01DX005 (ip), vehicle: saline) 100 % of control.

Consider `NC(Cc1ccccc1Cl)c1nn[nH]n1` (centres undefined), for which the T/C was 99 % of control and 93 % of control (dose: 25.0 mg/kg/injection, schedule: Q04DX002 (ip), vehicle: saline with Tween-80); 107 % of control and 95 % of control and 96 % of control (dose: 50.0 mg/kg/injection, schedule: Q04DX002 (ip), vehicle: saline with Tween-80); 100 % of control under setting [16]; 98 % of control and 100 % of control under setting [17].

With `COc1ccc(CSC(=S)Nc2ccc(C)c(Cl)c2)cc1`, the T/C is, setting by setting: (dose: 50.0 mg/kg/injection, schedule: Q01DX009 (ip), vehicle: suspension in saline) 106 % of control; (dose: 100.0 mg/kg/injection, schedule: Q01DX009 (ip), vehicle: suspension in saline) 102 % of control; (dose: 200.0 mg/kg/injection, schedule: Q01DX009 (ip), vehicle: suspension in saline) 111 % of control.
